Where a name gives a salt, the structure may show the parent alone. Read-outs that look alike come from different tables or passages of the source.
What was measured:
[1] = set-up: method as in doi:10.5012/bkcs.2004.25.6.878; settings: after oral administration of enalapril, LC-MS method; cited from earlier work
[2] = cited from earlier work
[3] = single oral intake of 20 mg of enalapril, 24 healthy subjects, GC-MS method; cited from earlier work
[4] = LC-MS/MS method; cited from earlier work
[5] = Bioequivalence study of two enalapril 20 mg tablet formulae, plasma levels by LC-MS/MS; type: in vivo, human; settings: single oral dose 20 mg, 30 healthy male volunteers
Method: Protein precipitation were done for each sample by using acetonitrile. The mobile phase was prepared by mixing of 70% methanol and 30% of a mixture of 20 mM ammonium acetate and 0.2 mM formic acid, while the stationary phase was RP-C18 column (50 × 4.0 mm ID, 5 μm). The column was maintained at 40°C, while the autosampler temperature was 4°C. The flow rate was 1.0 ml/min. The plasma levels of the analytes were measured after a single dose of 20 mg enalapril tablets under fasting conditions.
In this study we applied a clinical study similar to that of [16] with modification. Thirty healthy adult male volunteers participated in this study after signing an informed consent. […]
After fasting period (12 hrs, overnight), each volunteer was given an oral dose containing 20 mg of enalapril either “A, reference” or “B, tested” formula with 200 mL of water in the sequence determined by randomization. […]
The pharmacokinetic parameters considered for assessment of the bioequivalence study between the reference drug and test drug were as follows: maximum plasma concentration (Cmax), area under plasma concentration/time plot until the last quantifiable value (AUC0–72), auxiliary parameters, time of the maximum plasma concentration (tmax), elimination half-life time (t-half), and area under plasma concentration/time plot extrapolated to infinity (AUC0–∞). […]

[6] = Stability of enalapril and enalaprilat in spiked plasma under different storage conditions; type: physicochemical, human; settings: for Stability: n = 6; for Stability test results: spiked plasma and stock solutions, room temperature for 20 hrs, freeze-thaw cycles, autosampler, accelerated stability
Text: (4) Stability. Stability validation was done in triplicate run for low, mid, and high QC samples and calculated from spiked calibration curve. […]

[7] = set-up: method as in PMID 27437883; settings: hospitalizing type 2 diabetes mellitus patients, overall and high-risk subgroups; cited from earlier work
[8] = Accelerated stability at −30.0°C for 30 days, QC 3 ng/ml, plasma
[9] = Accelerated stability at −30.0°C for 30 days, QC 100 ng/ml, plasma
[10] = Accelerated stability at −30.0°C for 30 days, QC 160 ng/ml, plasma
[11] = Autosampler stability 24 h at 4°C, QC 3 ng/ml
[12] = Autosampler stability 24 h at 4°C, QC 100 ng/ml
[13] = Autosampler stability 24 h at 4°C, QC 160 ng/ml
[14] = Freeze and thaw stability at −20°C (3 cycles), QC 3 ng/ml, plasma
[15] = Freeze and thaw stability at −20°C (3 cycles), QC 100 ng/ml, plasma
[16] = Room temperature stability for 10 h, QC 3 ng/ml, plasma
[17] = Room temperature stability for 10 h, QC 100 ng/ml, plasma
[18] = Room temperature stability for 10 h, QC 160 ng/ml, plasma

Stability [6, 8] [%] | Stability [6, 9] [%] | Stability [6, 10] [%] | Stability [6, 11] [%] | Stability [6, 12] [%] | Stability [6, 13] [%] | Stability [6, 14] [%] | Stability [6, 15] [%] | Stability [6, 16] [%] | Stability [6, 17] [%] | Stability [6, 18] [%] | Stability test results [6] | Structure (SMILES) | AUC0–t [4] [ng·h/mL] | AUC0–∞ [4] [ng·h/mL] | Cmax [4] [ng/mL] | T1/2 [4] [h] | tmax [4] [h] | also measured
97.81 | 96.59 | 85.10 | 95.83 | 98.34 | 95.40 | 96.45 | 98.54 | 99.57 | 101.64 | 103.66 | greater than 85% | CCOC(=O)[C@H](CCc1ccccc1)N[C@@H](C)C(=O)N1CCC[C@H]1C(=O)O [enalapril, (S)-1-(N-(1-(ethoxycarbonyl)-3-phenylpropyl)-L-alanyl)-Lproline (Z)-2-butenedioate salt] | 136 ± 36 | 138 ± 36 | 90.5 ± 28.4 | 1.35 ± 0.61 | 0.860 ± 0.310 | Maximum plasma concentration (Cmax), mean [1]: 102 ± 39 ng/mL; Time to maximum plasma concentration (tmax) [1]: 0.96 ± 0.36 h; Bioavailability ([2]; absorbed from the gastrointestinal tract): 60–70%; Plasma level after 4 hrs ([2]; after 4 hrs): < 10 ng/mL; Effect of presence of food in the GI tract on absorption [2]: not affected; Terminal half-life [2]: about 2 h; Time to maximum plasma concentration ([2]; enalapril, after oral administration): ≤ 1 h; Cmax, mean [3]: 72.9 ± 41.6 ng/mL; tmax [3]: 4.0 ± 1.4 h; Tolerability in volunteers [5]: well tolerated
110.47 | 103.62 | 96.68 | 100.94 | 99.93 | 102.09 | 95.31 | 96.70 | 98.02 | 98.47 | 100.17 | greater than 85% | C[C@H](N[C@@H](CCc1ccccc1)C(=O)O)C(=O)N1CCC[C@H]1C(=O)O [enalaprilat] | 401 ± 89 | 420 ± 91 | 47.5 ± 12.4 | 6.71 ± 2.22 | 4.20 ± 1.06 | Half-life [2]: 30 to 35 h; Time of maximum plasma concentration ([2]; enalaprilat after administration of enalapril): 3 to 4 h; Stability ([6]; Freeze and thaw stability at −20°C (3 cycles), QC 160 ng/ml, plasma): 101.18%
 |  |  |  |  |  |  |  |  |  |  |  | N[C@@H](CC(=O)N1CCn2c(nnc2C(F)(F)F)C1)Cc1cc(F)c(F)cc1F [sitagliptin] |  |  |  |  |  | Effect on the risk for heart failure [7]: did not affect

Source: publication PMC5574226, “A Liquid Chromatography-Tandem Mass Spectrometry Method for Evaluation of Two Brands of Enalapril 20 mg Tablets in Healthy Human Volunteers” (Journal of Analytical Methods in Chemistry, 2017)
